Experiments:
[1] = target: T1, human Cereblon WT GST-tagged protein (Homo sapiens, UniProt Q96SW2); test: CRBN-binding affinity, HTRF (CEREBLON BINDING kit); details: for inhibition at 0.5 µM: read-out: Inhibition Rate at 0.5 µM (%); for inhibition at 2 µM: read-out: Inhibition Rate at 2 µM (%)
T1 construct: purchased CISBIO 64BDCRBNPEH

GSPT1 = test: Western blot, degradation of substrate protein in hPBMCs; type: cell-based, Human
IKZF2 = target: T2, IKZF2 (Homo sapiens, UniProt Q96SW2+Q9UKS7); test: as above; type: cell-based
T2 construct: effects of the compounds of the present disclosure on the expression of target proteins in cells; endogenous in cells; host or cells: human PBMCs (Milecell Biotechnologies)
T2 sequence (Q9UKS7 whole entry): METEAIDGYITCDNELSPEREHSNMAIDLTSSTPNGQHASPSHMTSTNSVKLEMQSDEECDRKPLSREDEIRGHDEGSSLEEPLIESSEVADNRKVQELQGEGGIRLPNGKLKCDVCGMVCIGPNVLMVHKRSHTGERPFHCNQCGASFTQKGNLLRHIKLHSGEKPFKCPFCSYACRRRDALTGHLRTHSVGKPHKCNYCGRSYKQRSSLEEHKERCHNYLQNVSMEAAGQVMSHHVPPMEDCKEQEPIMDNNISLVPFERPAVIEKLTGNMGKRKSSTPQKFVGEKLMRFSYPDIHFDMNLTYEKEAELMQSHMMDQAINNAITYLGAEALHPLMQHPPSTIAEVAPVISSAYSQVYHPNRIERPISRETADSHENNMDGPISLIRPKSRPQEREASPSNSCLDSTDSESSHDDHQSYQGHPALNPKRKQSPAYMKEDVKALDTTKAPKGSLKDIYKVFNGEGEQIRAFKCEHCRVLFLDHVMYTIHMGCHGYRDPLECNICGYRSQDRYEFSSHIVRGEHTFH
T2 sequence (Q96SW2 whole entry): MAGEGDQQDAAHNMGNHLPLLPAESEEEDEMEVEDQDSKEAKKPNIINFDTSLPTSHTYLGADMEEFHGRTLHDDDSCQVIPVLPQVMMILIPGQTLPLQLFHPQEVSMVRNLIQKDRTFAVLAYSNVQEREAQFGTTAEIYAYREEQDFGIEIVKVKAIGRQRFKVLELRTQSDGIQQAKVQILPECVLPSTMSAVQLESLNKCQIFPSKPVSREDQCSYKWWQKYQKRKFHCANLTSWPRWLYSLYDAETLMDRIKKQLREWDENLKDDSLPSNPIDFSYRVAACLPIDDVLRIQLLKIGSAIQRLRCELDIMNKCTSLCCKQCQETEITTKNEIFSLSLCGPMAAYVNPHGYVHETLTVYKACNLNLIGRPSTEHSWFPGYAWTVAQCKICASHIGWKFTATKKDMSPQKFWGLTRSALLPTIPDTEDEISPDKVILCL
T2 sequence (Q16531 whole entry partner): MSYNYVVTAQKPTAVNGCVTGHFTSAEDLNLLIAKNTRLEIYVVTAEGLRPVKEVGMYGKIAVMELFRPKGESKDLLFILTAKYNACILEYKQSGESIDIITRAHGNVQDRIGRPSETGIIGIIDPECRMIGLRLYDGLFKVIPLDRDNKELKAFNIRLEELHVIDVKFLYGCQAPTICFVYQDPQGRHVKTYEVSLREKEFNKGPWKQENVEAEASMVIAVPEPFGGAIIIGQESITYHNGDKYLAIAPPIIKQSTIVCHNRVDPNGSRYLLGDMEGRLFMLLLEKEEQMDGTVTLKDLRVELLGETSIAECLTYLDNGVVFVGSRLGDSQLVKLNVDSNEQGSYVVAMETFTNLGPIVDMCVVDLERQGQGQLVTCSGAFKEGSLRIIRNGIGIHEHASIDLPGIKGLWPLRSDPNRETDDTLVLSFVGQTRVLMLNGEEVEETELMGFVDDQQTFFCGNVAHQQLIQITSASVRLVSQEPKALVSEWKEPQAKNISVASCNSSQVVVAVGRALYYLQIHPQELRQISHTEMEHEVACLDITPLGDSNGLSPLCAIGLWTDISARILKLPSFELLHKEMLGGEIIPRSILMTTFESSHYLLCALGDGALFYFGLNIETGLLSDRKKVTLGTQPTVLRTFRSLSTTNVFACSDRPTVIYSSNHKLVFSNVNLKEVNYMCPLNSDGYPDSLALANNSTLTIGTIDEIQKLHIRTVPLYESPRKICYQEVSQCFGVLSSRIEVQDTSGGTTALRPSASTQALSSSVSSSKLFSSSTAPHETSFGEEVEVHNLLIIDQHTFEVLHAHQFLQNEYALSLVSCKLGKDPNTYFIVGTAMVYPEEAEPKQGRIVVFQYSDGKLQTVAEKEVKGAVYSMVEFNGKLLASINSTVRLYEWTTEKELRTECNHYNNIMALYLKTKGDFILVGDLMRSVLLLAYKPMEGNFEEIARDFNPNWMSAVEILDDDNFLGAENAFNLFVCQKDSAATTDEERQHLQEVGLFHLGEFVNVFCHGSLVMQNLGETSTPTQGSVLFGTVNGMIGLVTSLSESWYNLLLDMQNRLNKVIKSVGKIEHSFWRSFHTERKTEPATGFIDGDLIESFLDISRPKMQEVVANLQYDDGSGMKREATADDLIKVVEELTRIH

IKZF1 = target: T3, IKZF1 (Homo sapiens, UniProt Q13422+Q96SW2); test: as above; type: cell-based
T3 construct: effects of the compounds of the present disclosure on the expression of target proteins in cells; endogenous in cells; host or cells: human PBMCs (Milecell Biotechnologies)
T3 sequence (Q13422 whole entry): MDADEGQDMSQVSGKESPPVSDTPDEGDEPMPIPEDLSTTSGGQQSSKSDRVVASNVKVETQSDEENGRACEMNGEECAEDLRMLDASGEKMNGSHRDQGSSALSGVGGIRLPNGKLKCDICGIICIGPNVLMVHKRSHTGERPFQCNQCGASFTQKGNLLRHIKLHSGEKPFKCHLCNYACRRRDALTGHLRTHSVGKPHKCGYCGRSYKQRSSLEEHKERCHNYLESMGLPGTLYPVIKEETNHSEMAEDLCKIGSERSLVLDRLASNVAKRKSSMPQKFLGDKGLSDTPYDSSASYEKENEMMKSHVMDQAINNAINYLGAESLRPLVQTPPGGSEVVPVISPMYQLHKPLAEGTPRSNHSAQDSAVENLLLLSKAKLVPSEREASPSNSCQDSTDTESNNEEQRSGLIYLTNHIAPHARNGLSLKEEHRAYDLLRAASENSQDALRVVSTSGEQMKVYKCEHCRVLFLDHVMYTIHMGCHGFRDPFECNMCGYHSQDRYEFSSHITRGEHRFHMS
T3 sequence (Q96SW2 whole entry): as the sequence (Q96SW2 whole entry) above
T3 sequence (Q16531 whole entry partner): as the sequence (Q16531 whole entry partner) above

WEE1 = target: T4, WEE1 (Homo sapiens, UniProt P30291+Q96SW2); test: as above; type: cell-based
T4 construct: effects of the compounds of the present disclosure on the expression of target proteins in cells; endogenous in cells; host or cells: human PBMCs (Milecell Biotechnologies)
T4 sequence (P30291 whole entry): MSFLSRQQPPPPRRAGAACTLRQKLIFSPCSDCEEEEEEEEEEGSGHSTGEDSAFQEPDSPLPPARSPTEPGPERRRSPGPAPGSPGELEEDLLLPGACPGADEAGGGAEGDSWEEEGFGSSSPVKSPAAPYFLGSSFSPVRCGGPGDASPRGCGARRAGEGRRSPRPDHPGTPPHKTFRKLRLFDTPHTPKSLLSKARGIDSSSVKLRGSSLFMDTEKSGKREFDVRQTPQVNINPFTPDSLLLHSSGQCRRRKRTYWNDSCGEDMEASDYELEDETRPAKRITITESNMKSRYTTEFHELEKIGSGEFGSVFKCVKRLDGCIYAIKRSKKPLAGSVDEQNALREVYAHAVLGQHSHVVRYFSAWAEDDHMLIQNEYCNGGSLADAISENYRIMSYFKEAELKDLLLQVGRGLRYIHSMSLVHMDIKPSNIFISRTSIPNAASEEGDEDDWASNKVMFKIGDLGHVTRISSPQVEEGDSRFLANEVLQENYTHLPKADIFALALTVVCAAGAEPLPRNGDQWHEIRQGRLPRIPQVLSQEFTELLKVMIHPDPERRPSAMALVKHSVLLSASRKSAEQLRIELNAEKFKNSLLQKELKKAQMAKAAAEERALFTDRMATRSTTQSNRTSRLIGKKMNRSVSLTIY
T4 sequence (Q96SW2 whole entry): as the sequence (Q96SW2 whole entry) above
T4 sequence (Q16531 whole entry partner): as the sequence (Q16531 whole entry partner) above

IKZF3 = target: T5, IKZF3 (Homo sapiens, UniProt Q96SW2+Q9UKT9); test: as above; type: cell-based
T5 construct: effects of the compounds of the present disclosure on the expression of target proteins in cells; endogenous in cells; host or cells: human PBMCs (Milecell Biotechnologies)
T5 sequence (Q9UKT9 whole entry): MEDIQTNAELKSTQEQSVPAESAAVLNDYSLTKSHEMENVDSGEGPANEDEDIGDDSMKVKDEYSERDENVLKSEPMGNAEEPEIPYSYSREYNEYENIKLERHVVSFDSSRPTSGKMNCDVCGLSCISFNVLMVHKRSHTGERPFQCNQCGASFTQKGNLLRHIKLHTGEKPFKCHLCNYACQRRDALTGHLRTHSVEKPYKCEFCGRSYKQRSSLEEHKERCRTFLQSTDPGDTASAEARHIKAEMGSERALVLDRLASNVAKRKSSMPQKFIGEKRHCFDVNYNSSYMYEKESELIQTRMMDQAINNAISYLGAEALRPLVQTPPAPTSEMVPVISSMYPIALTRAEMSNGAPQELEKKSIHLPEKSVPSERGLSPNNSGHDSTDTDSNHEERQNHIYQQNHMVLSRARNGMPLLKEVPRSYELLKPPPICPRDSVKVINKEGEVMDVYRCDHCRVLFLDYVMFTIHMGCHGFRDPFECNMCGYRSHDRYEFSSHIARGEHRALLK
T5 sequence (Q96SW2 whole entry): as the sequence (Q96SW2 whole entry) above
T5 sequence (Q16531 whole entry partner): as the sequence (Q16531 whole entry partner) above

CK1α = target: T6, CK1α (Homo sapiens, UniProt P48729+Q96SW2); test: as above; type: cell-based
T6 construct: effects of the compounds of the present disclosure on the expression of target proteins in cells; endogenous in cells; host or cells: human PBMCs (Milecell Biotechnologies)
T6 sequence (P48729 whole entry): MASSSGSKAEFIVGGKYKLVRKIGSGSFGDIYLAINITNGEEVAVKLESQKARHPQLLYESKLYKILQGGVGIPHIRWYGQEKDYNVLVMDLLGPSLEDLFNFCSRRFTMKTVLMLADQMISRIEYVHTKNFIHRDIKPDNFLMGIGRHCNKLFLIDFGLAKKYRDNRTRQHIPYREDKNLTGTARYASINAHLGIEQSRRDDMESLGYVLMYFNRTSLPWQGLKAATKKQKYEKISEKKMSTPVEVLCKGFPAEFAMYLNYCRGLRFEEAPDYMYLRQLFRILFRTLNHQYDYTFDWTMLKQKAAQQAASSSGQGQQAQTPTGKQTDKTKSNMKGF
T6 sequence (Q96SW2 whole entry): as the sequence (Q96SW2 whole entry) above
T6 sequence (Q16531 whole entry partner): as the sequence (Q16531 whole entry partner) above

[2] = Western blot, 24 hours of compound treatment, compounds tested at 50 nM and 500 nM (concentration for the table not stated)
[3] = 24 hours treatment, compounds at 50 nM and 500 nM (concentration behind the class not stated)

T1 sequence (Q96SW2 whole entry): as the sequence (Q96SW2 whole entry) above

| Compound | inhibition at 0.5 µM [1] [%] | inhibition at 2 µM [1] [%] | GSPT1 substrate protein remaining % (GSPT1; [2]) | IKZF2 substrate protein remaining % (IKZF2; [2]) | IKZF 1 substrate protein remaining % (IKZF1; [2]) | Wee1 substrate protein remaining % (WEE1; [2]) | IKZF3 substrate protein remaining % (IKZF3; [2]) | CK1α substrate protein remaining % (CK1α; [2]) | GSPT1 substrate protein remaining % (GSPT1; [3]) | IKZF2 substrate protein remaining % (IKZF2; [3]) | IKZF 1 substrate protein remaining % (IKZF1; [3]) | Wee1 substrate protein remaining % (WEE1; [3]) | IKZF3 substrate protein remaining % (IKZF3; [3]) | CK1α substrate protein remaining % (CK1α; [3]) |
| --- | --- | --- | --- | --- | --- | --- | --- | --- | --- | --- | --- | --- | --- | --- |
| Cc1ccc(C2=CCN(Cc3cccc4c3CN(C3CCC(=O)NC3=O)C4=S)CC2)s1 (stereo not shown) [GT-08307, 3-(4-((4-(5-methylthiophen-2-yl)-3,6-dihydropyridin-1(2H)-yl)methyl)-1-thioxoisoindolin-2-yl)piperidine-2,6-dione] | 53 to 60 | 80 to 100 |  |  |  |  |  |  | B (80%< substrate protein remaining %≤ 100%) | B (80%< substrate protein remaining %≤ 100%) | B (80%< substrate protein remaining %≤ 100%) | A (0% ≤ substrate protein remaining % ≤ 80%) | B (80%< substrate protein remaining %≤ 100%) | B (80%< substrate protein remaining %≤ 100%) |
| O=C1CCC(N2Cc3cc(CN4CCC(n5cnc6cc(F)ccc65)CC4)ccc3C2=S)C(=O)N1 (stereo not shown) [GT-09262, 3-(5-((4-(5-fluoro-1H-benzo[d]imidazol-1-yl)piperidin-1-yl)methyl)-1-thioxoisoindolin-2-yl)piperidine-2,6-dione] | 53 to 60 | 80 to 100 |  |  |  |  |  |  | A (0% ≤ substrate protein remaining % ≤ 80%) | B (80%< substrate protein remaining %≤ 100%) | B (80%< substrate protein remaining %≤ 100%) | B (80%< substrate protein remaining %≤ 100%) | B (80%< substrate protein remaining %≤ 100%) | B (80%< substrate protein remaining %≤ 100%) |

Further lines, with some results ahead:

| inhibition at 0.5 µM [1] [%] | inhibition at 2 µM [1] [%] | Compound | GSPT1 substrate protein remaining % (GSPT1; [2]) | IKZF2 substrate protein remaining % (IKZF2; [2]) | IKZF 1 substrate protein remaining % (IKZF1; [2]) | Wee1 substrate protein remaining % (WEE1; [2]) | IKZF3 substrate protein remaining % (IKZF3; [2]) | CK1α substrate protein remaining % (CK1α; [2]) | GSPT1 substrate protein remaining % (GSPT1; [3]) | IKZF2 substrate protein remaining % (IKZF2; [3]) | IKZF 1 substrate protein remaining % (IKZF1; [3]) | Wee1 substrate protein remaining % (WEE1; [3]) | IKZF3 substrate protein remaining % (IKZF3; [3]) | CK1α substrate protein remaining % (CK1α; [3]) |
| --- | --- | --- | --- | --- | --- | --- | --- | --- | --- | --- | --- | --- | --- | --- |
| 53 to 60 | 80 to 100 | O=C1CCC(N2Cc3cc(CN4CCN(C(c5cccnc5)c5cccnc5)CC4)ccc3C2=S)C(=O)N1 (stereo not shown) [GT-07735, 3-(5-((4-(di(pyridin-3-yl)methyl)piperazin-1-yl)methyl)-1-thioxoisoindolin-2-yl)piperidine-2,6-dione] | A (0% ≤ substrate protein remaining % ≤ 80%) | B (80%< substrate protein remaining %≤ 100%) | B (80%< substrate protein remaining %≤ 100%) | A (0% ≤ substrate protein remaining % ≤ 80%) | A (0% ≤ substrate protein remaining % ≤ 80%) | B (80%< substrate protein remaining %≤ 100%) |  |  |  |  |  |  |
| 30 to 40 | 60 to 80 | O=C1CCC(N2Cc3c(CN4CCN(c5ncc(C(F)(F)F)cc5Cl)CC4)cccc3C2=S)C(=O)N1 (stereo not shown) [GT-08705, 3-(4-((4-(3-chloro-5-(trifluoromethyl)pyridin-2-yl)piperazin-1-yl)methyl)-1-thioxoisoindolin-2-yl)piperidine-2,6-dione] | B (80%< substrate protein remaining %≤ 100%) | B (80%< substrate protein remaining %≤ 100%) | B (80%< substrate protein remaining %≤ 100%) | A (0% ≤ substrate protein remaining % ≤ 80%) | B (80%< substrate protein remaining %≤ 100%) | B (80%< substrate protein remaining %≤ 100%) |  |  |  |  |  |  |
| 30 to 40 | 60 to 80 | O=C1CCC(N2Cc3c(CN4CCC(c5cccc(C(F)(F)F)c5)CC4)cccc3C2=S)C(=O)N1 (stereo not shown) [GT-08599, 3-(1-thioxo-4-((4-(3-(trifluoromethyl)phenyl)piperidin-1-yl)methyl)isoindolin-2-yl)piperidine-2,6-dione] | B (80%< substrate protein remaining %≤ 100%) | B (80%< substrate protein remaining %≤ 100%) | B (80%< substrate protein remaining %≤ 100%) | A (0% ≤ substrate protein remaining % ≤ 80%) | B (80%< substrate protein remaining %≤ 100%) | B (80%< substrate protein remaining %≤ 100%) |  |  |  |  |  |  |

Reference: patent EP4745135A1 (Gluetacs Therapeutics (Shanghai) Co., Ltd., priority 2023, dated 2025)
